Experimental data taken from patent US8481551B2, “Gyrase and topoisomerase IV inhibitors” (Vertex Pharmaceuticals Incorporated, priority 2011, dated 2013).
Counter-ions that a name gives are not always drawn. Like-named read-outs stand apart in the source and are kept apart here.

Tests used:
Neisseria meningitidis = experiment: Gyrase MIC, agar dilution method (Protocol 3); format: cell-based; details: 12 isolates tested
N. nova = experiment: MIC determination procedure for Mycobacterium species (Protocol 4); format: cell-based; details: N. nova 10
Fusobacterium spp. = experiment: Gyrase MIC, agar dilution method (Protocol 3); format: cell-based; details: 16 isolates tested
Klebsiella pneumoniae = experiment: Gyrase MIC against Gram negatives, microdilution broth method (Protocol 2); format: cell-based; details: for MIC90: Klebsiella pneumoniae, 12 isolates tested
Clostridium difficile = experiment: Gyrase MIC, agar dilution method (Protocol 3); format: cell-based; details: for MIC / MIC90: Clostridioides difficile; for MIC: ATCCBAA1382, Clostridium difficile ATCC BAA-1382; for MIC90 / MIC Range: Clostridium difficile, 16 isolates tested
Enterobacter cloacae = experiment: Gyrase MIC against Gram negatives, microdilution broth method (Protocol 2); format: cell-based; details: 12 isolates tested
[1] = Seven-day oral (gavage) toxicity and toxicokinetics study in rats; format: in vivo, Crl:CD(SD) rats; details: for Mean food consumption: Compound 13 once daily 100 or 200 mg/kg, Compound 23A twice daily 300 mg/kg, not considered adverse; for adverse observations / mean body weight: 7 days oral gavage; for histopathological findings: any dose regimen; for exposures for different dosage levels: toxicokinetics; for NOEL (No-Observable-Effect-Level) / dose levels without adverse toxicity: male, 7 days
Text: Crl:CD(SD) rats were obtained from Charles River Laboratories of Stone Ridge, N.Y. The animals were laboratory bred and experimentally naïve. Rats were chosen because they are a species that is commonly used for nonclinical toxicity evaluations.
Forty rats (20 noncannulated males and 20 males with jugular vein cannulas) were ordered. From these animals, 15 noncannulated males and 15 cannulated males were used. Animals were as uniform in age as possible. The rats were prepubertal to young adult, approximately 9 weeks of age at initiation of dosing. Their supplier-calculated birth date was retained in the study records. The weight range for the animals at the time of allocation to groups was 218.5-306.3 g.
Animals received the test article or vehicle by oral gavage for 7 consecutive days and were terminated the day following completion of dosing. The first day of dosing was designated as Day 1 of the study. The animals were evaluated for changes in clinical signs, body weight, and other parameters as described below.
The vehicle and test article were administered by oral gavage once daily for 7 consecutive days at a dose volume of 10 mL/kg body weight for Group A and Groups B-D, respectively. The test article and vehicle were administered by oral gavage twice daily, approximately 8 hours apart, for 7 consecutive days at a dose volume of 10 mL/kg body weight for Group E and Group F, respectively. The actual volume administered to each animal was calculated and adjusted based on the most recent body weight of each animal.
The postdosing observations made during treatment occurred at the following times based on Cmax/Tmax for the two compounds from previous studies:
Prior to start of dosing, body weights were measured for randomization on Day 1. During the treatment, body weights were measured on Day 1 and Day 7. In addition, fasted body weights were measured prior to necropsy for calculation of organ/body weight ratios.
Throughout the study, food consumption was measured daily starting 3 days prior to start of dosing.
Blood samples for evaluation of hematology, coagulation, and serum chemistry parameters were collected from all animals from the retro-orbital plexus (under CO2/O2 anesthesia, for the main study animals) or jugular vein cannula (for the toxicokinetic animals) prior to necropsy. Due to residual heparin used to keep the cannulas patent for the toxicokinetic animals, coagulation samples from these rats, were not able to be analyzed. The animals were fasted overnight prior to blood collection. On the day of blood collection for clinical pathology analyses, the animals were not necropsied until after the blood was collected and the samples judged to be acceptable by the clinical pathology group.
An appropriate amount of blood was collected in EDTA-containing tubes. The whole blood samples were analyzed for the parameters indicated below in Table 11.
An appropriate amount of blood was collected in tubes containing sodium citrate and then centrifuged to obtain plasma for the determination of prothrombin time (PT) and activated partial thromboplastin time (APTT).
An appropriate amount of blood was collected in tubes without anticoagulant. The sample was allowed to clot and then was centrifuged to obtain serum. The serum was analyzed for the parameters indicated below in Table 12.
On the 1st and 7th day of dosing, blood samples (approximately 0.5 mL/sample) were collected from the jugular vein cannula for all toxicokinetic animals at the timepoints listed below into K3EDTA-containing tubes. […] Prior to each collection, a small sample of blood (with heparin blocking solution) was removed from the cannula and discarded. A new syringe was placed on the cannula, and the protocol-required sample was taken. The syringe with the blood sample was removed, and a new syringe with saline attached to the cannula. Blood volume was replaced with an equal volume of saline and then blocking solution placed in the cannula. […]

Streptococcus pneumoniae = experiment: Gyrase MIC, microdilution broth method (Protocol 1); details: for MIC: ATCC10015
Pseudomonas aeruginosa = experiment: Gyrase MIC against Gram negatives, microdilution broth method (Protocol 2)
Clostridium perfringens = experiment: microbe, parasite or virus in culture; format: cell-based
[2] = Pharmacokinetics, monkey oral study; format: in vivo, cynomolgus monkeys; details: for AUC: male, cynomolgus monkey, plasma, po, monkey plasma, label = analyte
Text: Pharmacokinetic Data Analysis.
Statistical Data Analysis.
Plasma concentration vs. time data was subjected to noncompartmental pharmacokinetic (PK) analysis.

[3] = Pharmacokinetics, monkey IV study; details: male, cynomolgus monkey, plasma, 5 mg/kg, Compound W dosed IV 5 mg/kg in D5W, label = analyte
[4] = ATCC700603, Klebsiella pneumoniae ATCC 700603
[5] = ATCCBAA1705, Klebsiella pneumoniae ATCC BAA-1705
[6] = 100 mg/kg, Compound W dosed PO 100 mg/kg in 0.5% MC, read-out: AUCextrap
[7] = 300 mg/kg twice a day, compared to controls treated twice a day

| SMILES | MIC90 (Neisseria meningitidis) [µg/mL] | MIC Range (Neisseria meningitidis) [µg/mL] | MIC (N. nova) [µg/mL] | MIC90 (Fusobacterium spp.) [µg/mL] | MIC (Klebsiella pneumoniae; [4]) [µg/mL] | MIC (Klebsiella pneumoniae; [5]) [µg/mL] | MIC90 (Klebsiella pneumoniae) [µg/mL] | MIC (Clostridium difficile) [µg/mL] | MIC90 (Clostridium difficile) [µg/mL] | MIC Range (Clostridium difficile) | MIC90 (Enterobacter cloacae) [µg/mL] | Mean food consumption [1] | adverse observations / mean body weight ([1]; male rats) | histopathological findings ([1]; male rats) | exposures for different dosage levels ([1]; male rats) | NOEL (No-Observable-Effect-Level) ([1]; Crl:CD(SD), rat, in vivo, po) [mg/kg] | dose levels without adverse toxicity ([1]; Crl:CD(SD), rat, in vivo, po) | MIC (Streptococcus pneumoniae) [µg/mL] | MIC (Pseudomonas aeruginosa) [µg/mL] | MIC90 (Pseudomonas aeruginosa) [µg/mL] | also measured |
| --- | --- | --- | --- | --- | --- | --- | --- | --- | --- | --- | --- | --- | --- | --- | --- | --- | --- | --- | --- | --- | --- |
| CCNC(=O)Nc1nc2cc(-c3cnc(C(C)(C)O)nc3)cc([C@H]3CCCO3)c2[nH]1 [Compound 13, methanesulfonic acid salt of 1-ethyl-3-[5-[2-(1-hydroxy-1-methyl-ethyl)pyrimidin-5-yl]-7-[(2R)-tetrahydrofuran-2-yl]-1H-benzimidazol-2-yl]urea] | 0.12 | 0.015 to 0.25 | 8 | 2 | > 16 | > 16 | > 8 | 1 | 1 | 0.5 to 16 µg/mL | > 8 | reduced during different intervals of the study | No adverse observations or effects on mean body weight | No test article-related histopathological findings | dose related | 200 | up to 200 mg/kg/day | 0.022 | 0.33 | > 8 | MIC Range (Fusobacterium spp.): 1 to 4 µg/mL; AUC at 7 day ([1]; Crl:CD(SD), rat, in vivo, male rats, 200 mg/kg once a day for 7 days, oral gavage): 844000 ng·h/mL; MIC90 (Streptococcus pneumoniae): 0.06 µg/mL; MIC Range (Streptococcus pneumoniae; 67 isolates tested, Protocol 1): 0.015 to 0.06 µg/mL; MIC (Pseudomonas aeruginosa; PAO1): > 16 µg/mL; MIC90 (Clostridium perfringens): 0.5 µg/mL |
| CCNC(=O)Nc1nc2cc(-c3cnc(C(C)(C)O)nc3)c(F)c([C@H]3CCCO3)c2[nH]1 [Compound 23, 1-ethyl-3-[6-fluoro-5-[2-(1-hydroxy-1-methyl-ethyl)pyrimidin-5-yl]-7-[(2R)-tetrahydrofuran-2-yl]-1H-benzimidazol-2-yl]urea] |  |  |  |  |  |  |  |  |  |  |  |  |  |  |  |  |  |  |  |  | AUC ([2]; 30 mg/kg, Compound W dosed PO 30 mg/kg in 0.5% MC, read-out: AUCextrap): 24800 ng·h/mL; AUC [2, 6]: 76900 ng·h/mL; AUC ([2]; 300 mg/kg, Compound W dosed PO 300 mg/kg in 0.5% MC, read-out: AUCextrap): 155000 ng·h/mL; AUC ([3]; AUCextrap): 3810 ng·h/mL |
| CCNC(=O)Nc1nc2cc(-c3cnc(C(C)(C)O)nc3)c(F)c([C@H]3CCCO3)c2[nH]1 [Compound 23A, methanesulfonic acid salt of 1-ethyl-3-[6-fluoro-5-[2-(1-hydroxy-1-methyl-ethyl)pyrimidin-5-yl]-7-[(2R)-tetrahydrofuran-2-yl]-1H-benzimidazol-2-yl]urea] | 0.03 | 0.008 to 0.06 | 1 | > 16 | 16 | 12 | > 8 | 0.38 | 0.25 | 0.06-4^ μg/ml | > 8 | reduced during different intervals of the study | No adverse observations or effects on mean body weight | No test article-related histopathological findings | dose related | 100 | ≤ 600 mg/kg/day |  | 0.25 | > 8 | mean ALT [1, 7]: statistically higher; mean AST [1, 7]: statistically higher; NOAEL at 7 days ([1]; Crl:CD(SD), rat, in vivo, po, 300 mg/kg, male rats, twice a day for 7 days orally via gavage, read-out: NOAEL (No-Observable-Adverse-Effect-Level)): 300 mg/kg; AUC ([1]; Crl:CD(SD), rat, in vivo, male rats, 100 mg/kg once a day for 7 days, oral gavage): 82000 ng·h/mL; AUC ([1]; Crl:CD(SD), rat, in vivo, male rats, 300 mg/kg twice a day for 7 days, oral gavage): 291000 ng·h/mL; MIC (Pseudomonas aeruginosa; PAO1): > 16 µg/mL; MIC90 (Clostridium perfringens): 0.5 µg/mL; MIC Range (Clostridium perfringens; 12 isolates tested, Protocol 3): 0.12 to 0.5 µg/mL |
| CCNC(=O)Nc1nc2cc(-c3cnc(C(C)(C)OP(=O)([O-])[O-])nc3)c(F)c([C@H]3CCCO3)c2[nH]1.[Na+].[Na+] [Compound W, disodium (R)-2-(5-(2-(3-ethylureido)-6-fluoro-7-(tetrahydrofuran-2-yl)-1H-benzo[d]imidazol-5-yl)pyrimidin-2-yl)propan-2-yl phosphate] |  |  |  |  |  |  |  |  |  |  |  |  |  |  |  |  |  | 0.25 |  |  | conversion in vivo into Compound 23 ([2]; in at least rats, dogs and monkeys (all pharmacokinetic studies)): converted in vivo into Compound 23; AUC ([2]; 30 mg/kg, Compound W dosed PO 30 mg/kg in 0.5% MC, read-out: AUC): 45.3 ng·h/mL; AUC ([2]; 100 mg/kg, Compound W dosed PO 100 mg/kg in 0.5% MC, read-out: AUC): 432 ng·h/mL; AUC [2, 6]: 437 ng·h/mL; AUC ([2]; 300 mg/kg, Compound W dosed PO 300 mg/kg in 0.5% MC, read-out: AUC): 3690 ng·h/mL; AUC ([3]; AUC): 5790 ng·h/mL; AUC ([3]; AUCextrap): 5830 ng·h/mL |
